Key:
[1] = system: S. pneumoniae TIGR4Δfhs; experiment: Planktonic growth of S. pneumoniae fhs deletion mutant; type: cell-based, Streptococcus pneumoniae; conditions: S. pneumoniae fhs inactivated mutant; 0.25 μg/ml carolacton
Experimental: FIG. 4. Carolacton effects on S. pneumoniae TIGR4 and foID deletion, complementation and fhs deletion mutants. (A) Growth inhibition of planktonic cultures of S. pneumoniae TIGR4 wild type, ΔfoID deletion mutant and controls in THBY. Carolacton (caro) (0.25 μg/ml) was added at an optical density of 600 nm (OD600) of 0.15. (B) Planktonic growth of the S. pneumoniae TIGR4 wild type and the TIGR4Δfhs mutant in THBY. Cultures were treated with 0.25 μg/ml carolacton (OD600 0.15).
The Streptococcus mutans and Streptococcus pneumoniae strains used herein are UA159 and TIGR4, respectively. S. pneumoniae TIGR4 was routinely grown on Columbia blood agar plates (BD Biosciences) as described previously (Donner et. al, 2016). Streptococci were grown in Todd-Hewitt-Broth +1% (w/v) yeast extract (THBY, BD Biosciences)) at 37° C. and 5% CO2. The E. coli ToIC strain used in carolacton-resistant mutant development is an antibiotic-sensitive E. coli strain without its outer membrane channel protein ToIC. E. coli DH1OB or DH5α strain was used for gene cloning and E. coli BL21 (DE3) was used for protein expression. The protein expression plasmid pHis-TEV (Liu et al., 2009) was used for cloning and expression of all different foID gene orthologues studied herein.

[2] = system: S. mutans ΔfoID biofilms; experiment: S. mutans biofilm viability assay, foID deletion mutant; type: cell-based, Streptococcus mutans; conditions: 2.5 μg/ml carolacton
Experimental: According to Reck et al., 2011, S. mutans biofilms were grown in THBY+0.5% (w/v) sucrose in the presence of 2.5 μg/ml carolacton (cf. SI Methods). Cell viability was determined by staining of 20 h-old S. mutans biofilms with the LIVE/DEAD Viability Kit (Invitrogen) and by measuring fluorescence with a Victor^3 multilabel counter (Perkin-Elmer). Subsequently, the green/red fluorescence ratio was calculated and the relative inhibition of the treated biofilms determined in comparison to the untreated control.
For determination of Carolacton-induced cell death of S. mutans biofilms, o/n cultures of S. mutans were diluted to an OD600 of 0.01 in THBY+0.5% (w/v) sucrose. 10 μl of a Carolacton solution (2.5 μg/ml and 0.25 μg/ml in methanol) was pipetted into the wells of black a 96-well polystyrene Nunc MicroWell plates with transparent bottoms (ThermoFisher); control wells contained 10 μl of methanol. […]
The viability of S. mutans biofilm cells was assayed by staining with the commercially available Live/Dead staining kit (Invitrogen). […] Green and red fluorescence values of stained cells were measured using a Victor^3 fluorescence plate reader (Perkin-Elmer). The green/red ratio of treated and untreated cells was calculated and the relative cell death within Carolacton-treated biofilms determined relative to the untreated controls (Reck et al., 2011).

CO[C@H](CC(=O)O)[C@@H](C)C(=O)[C@H](C)/C=C(\C)[C@H]1OC(=O)[C@H](O)[C@H](O)/C=C/[C@H](C)CCC[C@@H]1C [Carolacton, carolacton]
inhibition of planktonic growth [1]: complete inhibition | sensitivity of biofilms to carolacton treatment [2]: fully insensitive

Reference: patent US11357752B2, “Carolacton and derivatives thereof for use in the treatment of cell proliferation disorders” (Helmholtz-Zentrum für Infektionsforschung GmbH, priority 2017, dated 2022)
